For the first experiment, the target named is T1, Cannabinoid-1 receptor (CB1R) (Rattus norvegicus, UniProt P20272).
T1 construct: The tissue obtained from the brain of SD rats was homogenized; from tissue; host or cells: brain of SD rats (membrane pellet of the homogenate)
T1 sequence (P20272 whole entry): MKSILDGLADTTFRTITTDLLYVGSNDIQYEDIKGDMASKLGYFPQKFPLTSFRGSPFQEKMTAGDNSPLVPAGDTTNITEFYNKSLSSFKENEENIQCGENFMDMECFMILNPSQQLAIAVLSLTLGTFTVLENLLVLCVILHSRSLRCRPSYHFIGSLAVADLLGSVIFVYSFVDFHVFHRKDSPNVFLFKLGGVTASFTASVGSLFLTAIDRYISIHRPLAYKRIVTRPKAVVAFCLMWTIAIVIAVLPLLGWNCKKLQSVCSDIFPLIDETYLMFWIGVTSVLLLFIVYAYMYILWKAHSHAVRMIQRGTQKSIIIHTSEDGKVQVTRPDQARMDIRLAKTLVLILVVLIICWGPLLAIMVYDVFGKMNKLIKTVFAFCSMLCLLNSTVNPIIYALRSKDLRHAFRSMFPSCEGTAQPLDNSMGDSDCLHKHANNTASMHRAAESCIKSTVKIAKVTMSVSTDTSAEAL
The experiment is described as follows: Cannabinoid-1 receptor (CB1R) binding affinity assay ([3H]CP-55940, rat CB-1 receptor binding protocol). The note with it: IC50(nM), brain tissue of SD rats, [3H]CP-55940, 30° C. 60 min.
For orientation: IC50 means the concentration at which inhibition is half-maximal. `CCc1c(-c2nnc(C3(c4cccc(Cl)c4)CC3)o2)nn(-c2ccc(Cl)cc2Cl)c1-c1ccc(Br)cc1` [Example 273, 2-(5-(4-bromophenyl)-1-(2,4-dichlorophenyl)-4-ethyl-1H-pyrazol-3-yl)-5-(1-(3-chlorophenyl)cyclopropyl)-1,3,4-oxadiazole] registered an IC50 of 2.32 nM.

`CCc1c(-c2nnc(C3(CC)CC3)o2)nn(-c2ccc(Cl)cc2Cl)c1-c1ccc(Br)cc1` [Example 279, 2-(5-(4-bromophenyl)-1-(2,4-dichlorophenyl)-4-ethyl-1H-pyrazol-3-yl)-5-(1-ethylcyclopropyl)-1,3,4-oxadiazole] came in with an IC50 of 12.8 nM.

Staying with this experiment, now noted: brain tissue of SD rats, [3H]CP-55940, 30° C. 60 min; read-out: IC50.
Consider `Cc1c(-c2nnc(C3(c4ccccn4)CC3)o2)nn(-c2ccc(Cl)cc2Cl)c1-c1ccc(Cl)cc1` [Example 269, 2-(5-(4-chlorophenyl)-1-(2,4-dichlorophenyl)-4-methyl-1H-pyrazol-3-yl)-5-(1-(pyridin-2-yl)cyclopropyl)-1,3,4-oxadiazole], for which the IC50 stood at 19.9 nM.

On to `Cc1c(-c2nnc(C3(Cc4ccccc4)CC3)o2)nn(-c2ccc(Cl)cc2Cl)c1-c1ccc(Cl)cc1` [Example 270, 2-(1-benzylcyclopropyl)-5-(5-(4-chlorophenyl)-1-(2,4-dichlorophenyl)-4-methyl-1H-pyrazol-3-yl)-1,3,4-oxadiazole], for which the IC50 is 15 nM.

On to `CCc1c(-c2nnc(C3(c4ccc(F)cc4)CC3)o2)nn(-c2ccc(Cl)cc2Cl)c1-c1ccc(Br)cc1` [Example 272, 2-(5-(4-bromophenyl)-1-(2,4-dichlorophenyl)-4-ethyl-1H-pyrazol-3-yl)-5-(1-(4-fluorophenyl)cyclopropyl)-1,3,4-oxadiazole], for which the IC50 amounted to 5.8 nM.

For `Cc1c(-c2nnc(C3(c4ccc(F)cc4)CC3)o2)nn(-c2ccc(Cl)cc2Cl)c1-c1ccc(Cl)cc1` [Example 274, 2-(5-(4-chlorophenyl)-1-(2,4-dichlorophenyl)-4-methyl-1H-pyrazol-3-yl)-5-(1-(4-fluorophenyl)cyclopropyl)-1,3,4-oxadiazole], the IC50 stood at 12.3 nM.

On to `Cc1c(-c2nnc(C3(C)CC3)o2)nn(-c2ccc(Cl)cc2Cl)c1-c1ccc(Cl)cc1` [Example 275, 2-(5-(4-chlorophenyl)-1-(2,4-dichlorophenyl)-4-methyl-1H-pyrazol-3-yl)-5-(1-methylcyclopropyl)-1,3,4-oxadiazole], for which the IC50 was found to be 14.7 nM.

For the compound `CCc1c(-c2nnc(C3(C)CC3)o2)nn(-c2ccc(Cl)cc2Cl)c1-c1ccc(Br)cc1` [Example 276, 2-(5-(4-bromophenyl)-1-(2,4-dichlorophenyl)-4-ethyl-1H-pyrazol-3-yl)-5-(1-methylcyclopropyl)-1,3,4-oxadiazole], the IC50 is 13 nM.

Turning to `CCC1(c2nnc(-c3nn(-c4ccc(Cl)cc4Cl)c(-c4ccc(Cl)cc4)c3C)o2)CC1` [Example 277, 2-(5-(4-chlorophenyl)-1-(2,4-dichlorophenyl)-4-methyl-1H-pyrazol-3-yl)-5-(1-ethylcyclopropyl)-1,3,4-oxadiazole], the IC50 is 12.6 nM.

On to `CCc1c(-c2nnc(C3(CC)CC3)o2)nn(-c2ccc(Cl)cc2Cl)c1-c1ccc(Cl)cc1` [Example 278, 2-(5-(4-chlorophenyl)-1-(2,4-dichlorophenyl)-4-ethyl-1H-pyrazol-3-yl)-5-(1-ethylcyclopropyl)-1,3,4-oxadiazole], for which the IC50 came out at 17.1 nM.

In the case of `Cc1c(-c2nnc(C3(Cc4ccc(Cl)cc4)CC3)o2)nn(-c2ccc(Cl)cc2Cl)c1-c1ccc(Cl)cc1` [Example 280, 2-(1-(4-chlorobenzyl)cyclopropyl)-5-(5-(4-chlorophenyl)-1-(2,4-dichlorophenyl)-4-methyl-1H-pyrazol-3-yl)-1,3,4-oxadiazole], the IC50 amounted to 11.7 nM.

In the case of `CCc1c(-c2nnc(C3(Cc4ccc(Cl)cc4)CC3)o2)nn(-c2ccc(Cl)cc2Cl)c1-c1ccc(Br)cc1` [Example 281, 2-(1-(4-chlorobenzyl)cyclopropyl)-5-(5-(4-bromophenyl)-1-(2,4-dichlorophenyl)-4-ethyl-1H-pyrazol-3-yl)-1,3,4-oxadiazole], the IC50 turned out to be 6.21 nM.

(Values after patent US7875647B2, “Heteroaryl-pyrazole derivatives as cannabinoid CB1 receptor antagonists” (Green Cross Corporation, priority 2006, dated 2011).)
